Among the test systems are DU-145; NCI-H226; SW-620; OVCAR-8; SNB-75; SF-268; SNB-19; Hs-578T; COLO 205; NCI/ADR-RES; SN12C; TK-10; T47D; CCRF-CEM; EKVX; SK-MEL-5; OVCAR-5; SK-OV-3; UACC-62; OVCAR-3.
Holding throughout (test): NCI anticancer screen, dose series, 48 h

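Dose response: 5 concentrations. Exposure: 48 h. Format: 96-well plates. Endpoint: linear interpolation; highest concentration if not reached. GI50 = concentration required for 50% inhibition of growth.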 Activity calls are given as the source filed them. Cut-off read from the data, not from the text of the source: active = GI50 up to about 1.1 µM and inactive = higher. Square brackets hold non-standard residues; d marks the D form. Peptide text beside a SMILES is read from it. pGlu = O=C1CC[C@@H](C(=O)O)N1; Thz = O=C(O)[C@@H]1CSCN1 A value given as a limit tells only on which side of the number the result lay.

The text below walks through data of ChEMBL document CHEMBL1201862, “PubChem BioAssay data set” (2004).

Turning to `COC(=O)C1=C(OC(=O)/C(=C/c2ccccc2)c2ccc(Cl)cc2)C(C(=O)OC)[C@@]2(O)[C@@H](C(=O)OC)[C@H](C)C[C@@H]1[C@@H]2C(=O)OC` (stereo partly specified), the GI50 with DU-145, with NCI-H226, with SW-620, with OVCAR-8, with SNB-75 and in the assay on SF-268 was > 100 µM (inactive) in each case. The GI50 in the assay with SNB-19, in the assay with Hs-578T, with COLO 205, with NCI/ADR-RES, with SN12C and in the assay on TK-10 was > 100 µM (inactive) in each case. The GI50 in the assay on T47D, in the assay with CCRF-CEM, in the assay on EKVX, with SK-MEL-5, in the assay on OVCAR-5 and with SK-OV-3 was > 100 µM (inactive) each time. In addition, the GI50 in the assay on UACC-62 and in the assay with OVCAR-3 was > 100 µM (inactive) each time.

For the molecule `COc1cc(C(=O)OC2CC(C)=CC[C@@]3(C)CC[C@](O)(C(C)C)C23)ccc1O` (stereo partly specified), the GI50 was 17.9 µM (inactive) with DU-145; 15.6 µM (inactive) with NCI-H226; 28.5 µM (inactive) with SW-620; 18.2 µM (inactive) in the assay with OVCAR-8; 18.7 µM (inactive) in the assay with SNB-75; 19.5 µM (inactive) with SF-268. For the same molecule, the GI50 in the assay with SNB-19 was 19.2 µM (inactive); in the assay with Hs-578T, 17.3 µM (inactive); with COLO 205, 20 µM (inactive); with NCI/ADR-RES, 15.4 µM (inactive); with SN12C, 18.4 µM (inactive); in the assay on TK-10 it was 15 µM (inactive). The GI50 in the assay on T47D was 22.3 µM (inactive); with CCRF-CEM, 26.3 µM (inactive); with EKVX it was 18.9 µM (inactive); in the assay with SK-MEL-5, 17.5 µM (inactive); with OVCAR-5, 18 µM (inactive); in the assay on SK-OV-3, 15.4 µM (inactive). The GI50 in the assay on OVCAR-3 is 18.5 µM (inactive).

For `CCOc1cc(CCNC)c2c(ccc3ccc(OC)c(O)c32)c1OC`, the GI50 with DU-145 was 15.2 µM (inactive); in the assay on NCI-H226, 17.9 µM (inactive); in the assay with OVCAR-8 it was 13.6 µM (inactive); in the assay with SNB-75 it was 16 µM (inactive); with SF-268 it was 18 µM (inactive); with SNB-19, 16.1 µM (inactive). The GI50 is 17.4 µM (inactive) in the assay on Hs-578T; 19 µM (inactive) in the assay with COLO 205; 19.2 µM (inactive) in the assay on NCI/ADR-RES; 16.1 µM (inactive) with SN12C; 18 µM (inactive) with TK-10; 21.7 µM (inactive) in the assay with T47D. Moreover, the GI50 in the assay on CCRF-CEM was 14.9 µM (inactive); in the assay with EKVX, 19.3 µM (inactive); in the assay with SK-MEL-5, 11.8 µM (inactive); with OVCAR-5, 14.5 µM (inactive); with SK-OV-3, 14.4 µM (inactive); in the assay with UACC-62, 15.8 µM (inactive). Besides, the GI50 with OVCAR-3 is 14.5 µM (inactive).

As to `N#Cc1cc2c(cc1C#N)SCCSCCCSCCS2`, the GI50 is 56.5 µM (inactive) in the assay on DU-145; 41.1 µM (inactive) with NCI-H226; 29.4 µM (inactive) with SW-620; 12.2 µM (inactive) in the assay on OVCAR-8; 4.61 µM (inactive) in the assay with SNB-75; 10.3 µM (inactive) in the assay with SF-268. Moreover, the GI50 is 6.79 µM (inactive) with SNB-19; 3.96 µM (inactive) with Hs-578T; > 84.3 µM (inactive) with COLO 205; 30.5 µM (inactive) in the assay with NCI/ADR-RES; 41.9 µM (inactive) in the assay on SN12C; 2.82 µM (inactive) with TK-10. The GI50 is 32.4 µM (inactive) in the assay on T47D; > 48.3 µM (inactive) with CCRF-CEM; > 48.9 µM (inactive) in the assay on EKVX; > 100 µM (inactive) with SK-MEL-5; > 72.3 µM (inactive) in the assay on OVCAR-5; 12 µM (inactive) with SK-OV-3. For the same molecule, the GI50 with UACC-62 was 9.93 µM (inactive); in the assay on OVCAR-3, 25.2 µM (inactive).

Take `O=C(NNC(=S)Nc1ccccc1)C12CC3CC(CC(C3)C1)C2`: the GI50 in the assay with DU-145 is 28.6 µM (inactive); in the assay on NCI-H226 it was 26.7 µM (inactive); with SW-620 it was 24.2 µM (inactive); in the assay on OVCAR-8, 21.7 µM (inactive); in the assay with SNB-75 it was 29.4 µM (inactive); with SF-268, 17.1 µM (inactive). Besides, the GI50 in the assay with SNB-19 was 25.4 µM (inactive); in the assay on Hs-578T, > 74.3 µM (inactive); with COLO 205 it was 20.7 µM (inactive); with NCI/ADR-RES, 15.5 µM (inactive); with SN12C it was 24.5 µM (inactive); in the assay with TK-10, 39.5 µM (inactive). Moreover, the GI50 was 27.6 µM (inactive) in the assay with T47D; 6.92 µM (inactive) with CCRF-CEM; 36 µM (inactive) with EKVX; 8.53 µM (inactive) in the assay on SK-MEL-5; 59.4 µM (inactive) with OVCAR-5; 41.4 µM (inactive) with SK-OV-3. For the same molecule, the GI50 in the assay with UACC-62 is 13.7 µM (inactive); in the assay on OVCAR-3, 10.6 µM (inactive).

For the molecule `COC1C(N)C(OC2C(Oc3cccc4c(O)c5c(=O)oc6ccc(C)c7c(=O)oc(c34)c5c67)OC(C)C(O)C2(C)O)OC(C)C1O` (stereo unspecified), the GI50 in the assay on DU-145 was 0.187 µM (active); in the assay with NCI-H226, 0.0201 µM (active); in the assay on SW-620, 0.0102 µM (active); in the assay on OVCAR-8, 0.0154 µM (active); in the assay with SNB-75, 0.0313 µM (active); in the assay with SF-268, < 0.0119 µM (active). Moreover, the GI50 in the assay on SNB-19 is 0.0186 µM (active); with Hs-578T, < 0.01 µM (active); with COLO 205, 0.0456 µM (active); in the assay on NCI/ADR-RES it was 0.427 µM (active); in the assay on SN12C, 0.0178 µM (active); with TK-10, 0.0643 µM (active). Also, the GI50 in the assay on T47D was 0.0266 µM (active); in the assay on CCRF-CEM, < 0.0236 µM (active); with EKVX, 0.156 µM (active); with SK-MEL-5 it was 0.031 µM (active); with OVCAR-5, 0.27 µM (active); in the assay on SK-OV-3, 0.114 µM (active). For the same molecule, the GI50 in the assay on UACC-62 was 0.0208 µM (active); in the assay with OVCAR-3 it was 0.108 µM (active).

Regarding `Cc1n[nH]c(C(F)(F)F)c1/N=N/N1CCOCC1`, the GI50 in the assay with DU-145 is 4.59 µM (inactive); with NCI-H226, 8.53 µM (inactive); with SW-620, 2.32 µM (inactive); with OVCAR-8, 3.76 µM (inactive); with SNB-75 it was 12.5 µM (inactive); with SF-268, 13.1 µM (inactive). Moreover, the GI50 with SNB-19 is 15.2 µM (inactive); with Hs-578T, 13 µM (inactive); with COLO 205 it was 4.69 µM (inactive); in the assay with NCI/ADR-RES it was 6.76 µM (inactive); in the assay with SN12C, 11 µM (inactive); with TK-10, 12 µM (inactive). In addition, the GI50 in the assay on T47D is 3.27 µM (inactive); with CCRF-CEM, 0.423 µM (active); with EKVX, 5.74 µM (inactive); in the assay with SK-MEL-5 it was 2.92 µM (inactive); with OVCAR-5, 6.37 µM (inactive); in the assay with SK-OV-3 it was 16.6 µM (inactive). Further, the GI50 with UACC-62 is 11 µM (inactive); with OVCAR-3, 7.21 µM (inactive).

As for `CCCCCC[C@H]([C@H](C)O)n1cnc2c(N)ncnc21`, the GI50 is > 100 µM (inactive) in the assay on DU-145; > 100 µM (inactive) in the assay with NCI-H226; > 100 µM (inactive) with SW-620; > 100 µM (inactive) in the assay with OVCAR-8; 62.7 µM (inactive) in the assay with SNB-75; > 100 µM (inactive) in the assay with SF-268. The GI50 with SNB-19, with Hs-578T, in the assay with COLO 205, in the assay on NCI/ADR-RES, in the assay with SN12C and in the assay with TK-10 was > 100 µM (inactive) each time. The GI50 in the assay on T47D, with CCRF-CEM, in the assay on EKVX, with SK-MEL-5, in the assay on OVCAR-5 and in the assay on SK-OV-3 was > 100 µM (inactive) throughout. Moreover, the GI50 with UACC-62 and in the assay with OVCAR-3 was > 100 µM (inactive) in each case.

On to `NCCCNCCCCN1CC1`, for which the GI50 was 2.12 µM (inactive) with DU-145; 8.49 µM (inactive) with NCI-H226; 2.31 µM (inactive) with SW-620; 2.07 µM (inactive) in the assay on OVCAR-8; 0.372 µM (active) in the assay on SNB-75; 1.99 µM (inactive) with SF-268. Also, the GI50 is 6.55 µM (inactive) with SNB-19; 1.08 µM (active) in the assay on Hs-578T; 1.02 µM (active) in the assay on COLO 205; 3.33 µM (inactive) in the assay with NCI/ADR-RES; 3.77 µM (inactive) in the assay on SN12C; 5.96 µM (inactive) in the assay on TK-10. For the same molecule, the GI50 was 0.265 µM (active) with T47D; 0.836 µM (active) with CCRF-CEM; 4.61 µM (inactive) with EKVX; 2.25 µM (inactive) with SK-MEL-5; 12 µM (inactive) in the assay with OVCAR-5; 2.25 µM (inactive) in the assay on SK-OV-3. Moreover, the GI50 is 3.99 µM (inactive) in the assay on UACC-62 and 1.6 µM (inactive) in the assay on OVCAR-3.

Turning to `O=C1CC[C@@H](C(=O)N2CSC[C@H]2C(=O)O)N1` [PIDOTIMOD] ([pGlu]-[Thz]-OH), the GI50 in the assay on DU-145, in the assay on NCI-H226, with SW-620, in the assay with OVCAR-8, with SNB-75 and with SF-268 was > 100 µM (inactive) throughout. The GI50 in the assay with SNB-19, in the assay with Hs-578T, with NCI/ADR-RES, in the assay with SN12C, in the assay on TK-10 and in the assay on T47D was > 100 µM (inactive) each time. Besides, the GI50 in the assay with CCRF-CEM, in the assay with SK-MEL-5, in the assay with OVCAR-5, with SK-OV-3, in the assay on UACC-62 and in the assay on OVCAR-3 was > 100 µM (inactive) throughout.
